Laboratory results taken from US9840508B2, “N-acyl-(3-substituted)-(8-methyl)-5,6-dihydro-[1,2,4]triazolo[4,3-a] pyrazines as selective NK-3 receptor antagonists, pharmaceutical composition, methods for use in NK-3 receptor-mediated disorders” (EUROSCREEN SA, priority 2013, dated 2017).
pIC50, pKi: −log10 of the molar value.

How the values were obtained:
human NK-1 receptor = human NK-1 receptor (Homo sapiens (Human), UniProt P25103); assay: Selectivity binding assay, human NK-1 ([3H] substance P); settings: CHO cell membranes; 2 nM [3H] substance P; read-out: hNK-1 (Ki)
Experimental: Selectivity of the compounds of the invention was determined over the other human NK receptors, namely NK-1 and NK-2 receptors.
The affinity of compounds of the invention for the NK-1 receptor was evaluated in CHO recombinant cells which express the human NK-1 receptor. Membrane suspensions were prepared from these cells. The following radioligand: [^3H] substance P (PerkinElmer Cat#NET111520) was used in this assay. Binding assays were performed in a 50 mM Tris/5 mM MnCl2/150 mM NaCl/0.1% BSA at pH 7.4. Binding assays consisted of 25 μl of membrane suspension (approximately 5 μg of protein/well in a 96 well plate), 50 μl of compound or reference ligand (Substance P) at increasing concentrations (diluted in assay buffer) and 2 nM [^3H] substance P. The plate was incubated 60 min at 25° C. in a water bath and then filtered over GF/C filters (Perkin Elmer, 6005174, presoaked in 0.5% PEI for 2 h at room temperature) with a Filtration unit (Perkin Elmer). The radioactivity retained on the filters was measured by using the TopCount-NXT reader (Packard). Competition curves were obtained for compounds of the invention and the concentrations of compounds which displaced 50% of bound radioligand (IC50) were determined and then apparent inhibition constant Ki values were calculated by the following equation: Ki=IC50/(1+[L]/KD) where [L] is the concentration of free radioligand and KD is its dissociation constant at the receptor, derived from saturation binding experiments (Cheng and Prusoff, 1973).

human NK-3 receptor = human NK-3 receptor (Homo sapiens (Human), UniProt P29371); assay: Aequorin functional assay with human NK-3 receptor (antagonist testing); format: cell-based; settings: CHO cells expressing human NK-3 receptor; agonist NKA at EC80 (3 nM); read-out: Functional assay: Aequorin assay with human NK-3 receptor hNK-3 - AEQ (antagonist IC50)
Experimental: Aequorin Assay with Human NK-3 Receptor
Changes in intracellular calcium levels are a recognized indicator of G protein-coupled receptor activity. The efficacy of compounds of the invention to inhibit NKA-mediated NK-3 receptor activation was assessed by an in vitro Aequorin functional assay. Chinese Hamster Ovary recombinant cells expressing the human NK-3 receptor and a construct that encodes the photoproteinapoaequorin were used for this assay. In the presence of the cofactor coelenterazine, apoaequorin emits a measurable luminescence that is proportional to the amount of intracellular (cytoplasmic) free calcium.
The antagonist activity of compounds of the invention is measured following pre-incubation (3 minutes) of the compound (at various concentrations) with the cells, followed by addition of the reference agonist (NKA) at a final concentration equivalent to the EC80 (3 nM) and recording of emitted light (FDSS 6000 Hamamatsu) over the subsequent 90-second period. The intensity of the emitted light is integrated using the reader software. Compound antagonist activity is measured based on the concentration-dependent inhibition of the luminescence response to the addition of Neurokinin A.
The IC50 values shown in Table 2 indicate that compounds of the invention are potent NK-3 antagonist compounds.

circulating LH levels = assay: Castrated male rat model, circulating luteinizing hormone (LH), oral dosing; format: in vivo; settings: castrated male SD rat; single oral dose less than or equal to 30 mg/kg; p<0.05
Experimental: In vivo Assay to Assess Compound Activity in Rat (Oral Dosing)
The effect of compounds of the invention to inhibit luteinizing hormone (LH) secretion is determined by the following biological studies.
Castrated Male Rat Model to Assess the Effect of Compound of Invention on Circulating Levels of Luteinizing Hormone (LH)
In humans and rodents, castration is well-precedented to permit heightened, persistent GnRH signaling and consequent elevation of circulating LH. Thus, a castrated rat model is used to provide a broad index for measurement of LH inhibition as a marker of test compound inhibition of the GnRH signaling pathway.
Castrated adult male Sprague-Dawley (SD) rats (150-175 g) were purchased from Janvier (St Berthevin, France). All animals were housed 2 per cage in a temperature-controlled room (22±2° C.) and 50±5% relative humidity with a 12 hour/12 hour light/dark cycles (lights off at 6 h00 pm). The animals were allowed 3 weeks of postoperative recovery prior to study. Animals were handled on a daily basis. Standard diet and tap water were provided ad libitum. Animal cage litters were changed once a week. […]
After basal sampling (TO) a single dose of compounds of the invention or vehicle was administrated orally to rats. […] Serum LH levels were determined using radioimmunoassay kit from RIAZEN—Rat LH, Zentech (Liège, Belgium). […]

human NK-3 receptor, sequence (P29371 whole entry): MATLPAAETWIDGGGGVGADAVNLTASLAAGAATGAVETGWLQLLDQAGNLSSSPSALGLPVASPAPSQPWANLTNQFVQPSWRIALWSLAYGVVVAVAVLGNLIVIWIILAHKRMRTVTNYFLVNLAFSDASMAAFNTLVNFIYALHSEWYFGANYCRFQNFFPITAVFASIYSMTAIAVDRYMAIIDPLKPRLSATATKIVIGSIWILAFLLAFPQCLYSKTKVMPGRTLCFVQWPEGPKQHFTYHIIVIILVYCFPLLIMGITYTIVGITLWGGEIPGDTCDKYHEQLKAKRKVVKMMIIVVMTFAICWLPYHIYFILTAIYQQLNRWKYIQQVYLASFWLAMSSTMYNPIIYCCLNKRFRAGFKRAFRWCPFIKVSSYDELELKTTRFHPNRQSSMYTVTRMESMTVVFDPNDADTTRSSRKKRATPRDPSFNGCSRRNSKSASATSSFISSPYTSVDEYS
human NK-1 receptor, sequence (P25103 whole entry): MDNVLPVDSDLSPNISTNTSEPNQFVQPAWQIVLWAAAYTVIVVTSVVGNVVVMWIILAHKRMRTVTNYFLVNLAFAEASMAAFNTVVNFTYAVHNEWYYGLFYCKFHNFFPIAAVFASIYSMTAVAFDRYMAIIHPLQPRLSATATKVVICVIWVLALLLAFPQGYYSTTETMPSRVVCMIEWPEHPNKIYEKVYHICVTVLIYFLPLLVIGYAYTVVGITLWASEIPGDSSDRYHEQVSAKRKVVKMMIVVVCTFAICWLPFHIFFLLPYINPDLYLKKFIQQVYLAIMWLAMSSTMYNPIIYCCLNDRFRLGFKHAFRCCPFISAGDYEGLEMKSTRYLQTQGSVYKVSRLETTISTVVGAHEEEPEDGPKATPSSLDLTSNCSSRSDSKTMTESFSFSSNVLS

In the case of `Cc1ccc(-c2nnc3n2CCN(C(=O)c2ccc(F)cc2)[C@@H]3C)o1` [Compound 1, (R)-(4-fluorophenyl)(8-methyl-3-(5-methylfuran-2-yl)-5,6-dihydro-[1,2,4]triazolo[4,3-a]pyrazin-7(8H)-yl)methanone], the pKi (human NK-1 receptor) was under 4.52, the pIC50 (human NK-3 receptor) was 7.22 and the “Suppression of circulating LH levels” value (circulating LH levels) was “significantly suppressed circulating LH levels”.

In the case of `C[C@@H]1c2nnc(-c3csc(C(F)(F)F)n3)n2CCN1C(=O)c1ccc(F)cc1` [Compound 3, (R)-(4-fluorophenyl)(8-methyl-3-(2-(trifluoromethyl)thiazol-4-yl)-5,6-dihydro-[1,2,4]triazolo[4,3-a]pyrazin-7(8H)-yl)methanone], the pKi (human NK-1 receptor) was under 4.52 and the pIC50 (human NK-3 receptor) was 7.70.
